Results on twelve molecules are retold here after ChEMBL document CHEMBL1201862, “PubChem BioAssay data set” (2004).

Common to all, as to experiment: NCI-60 cell line screen, 48 h
Assay [1] relates to EKVX.
The subject of assay [2] is HCT-116.
For assay [3], the system named is HOP-62.
Assay [4] deals with MOLT-4.
The subject of assay [5] is NCI-H226.
The test system of assay [6] is NCI-H460.
The subject of assay [7] is OVCAR-3.
In assay [8] the test system is RXF 393.
The test system of assay [9] is SF-295.
Assay [10] concerns SF-539.
Assay [11] relates to SK-MEL-28.
Assay [12] deals with SK-MEL-5.
For assay [13], the system named is SR.
Assay [14] has as its system SW-620.
For assay [15], the system named is UO-31.
Assay [16] deals with HCT-15.
The test system of assay [17] is MCF7.
Assay [18] concerns MDA-MB-231.
Assay [19] relates to PC-3.
Assay [20] relates to T47D.

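Method: 48-hour compound exposure of cells in 96-well plates, five concentrations, linear interpolation of endpoints. GI50 = concentration required for 50% inhibition of growth.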 Calls of active or inactive are those of the source. Rule as the data show it: active = GI50 up to about 1.1 µM and inactive = higher.

`Oc1ccc(Br)cc1/C=N/c1ccc(Oc2ccc(/N=C/c3cc(Br)ccc3O)cc2)cc1`: the GI50 in assay [1], in assay [2], in assay [3], in [4], in [5] and in assay [6] was > 19.6 µM (inactive) each time. Further, the GI50 in [7], in [8], in [9], in assay [10], in assay [11] and in [12] was > 19.6 µM (inactive) in each case. Moreover, the GI50 in assay [13], in [14] and in assay [15] was > 19.6 µM (inactive) each time.
On to `Cc1ccc(S(=O)(=O)Nn2c(O)c(C#N)c(-c3ccc(N(C)C)cc3)c(C#N)c2=O)cc1`, for which the GI50 in [1] was > 50 µM (inactive); in assay [2], > 50 µM (inactive); in [16] it was over 50 µM; in assay [3] it was > 50 µM (inactive); in [17], > 50 µM (inactive); in assay [18] it was > 50 µM (inactive). For the same molecule, the GI50 in [4] is > 50 µM (inactive); in assay [5], > 50 µM (inactive); in [6], > 50 µM (inactive); in assay [19] it was > 50 µM (inactive); in assay [8], > 50 µM (inactive); in assay [9], 0.023 µM (active). In addition, the GI50 was > 50 µM (inactive) in assay [10], > 50 µM (inactive) in assay [11], 26.2 µM (inactive) in [12] and > 50 µM (inactive) in [14].
With `CC(=O)OC1OC2C(NC(=O)OC(C)(C)C)C1CC2(OCc1ccccc1)OCc1ccccc1` (stereo not given), the GI50 in assay [1] is 34.7 µM (inactive); in assay [2], 16.7 µM (inactive); in assay [16] it was 32.3 µM; in assay [3] it was 28.2 µM (inactive); in assay [4], 9.71 µM (inactive); in [5] it was 24.7 µM (inactive). Further, the GI50 in assay [6] is 34.8 µM (inactive); in assay [7], 16.5 µM (inactive); in assay [8], 14.2 µM (inactive); in [9], 35.2 µM (inactive); in [10], 18.1 µM (inactive); in [11], 20.9 µM (inactive). The GI50 is 17.6 µM (inactive) in [12], 17.8 µM (inactive) in assay [13], 32.8 µM (inactive) in [14] and 13.1 µM (inactive) in [15].
As for `Cc1cc([N+](=O)[O-])ccc1Sc1c2ccccc2nc2cc(Cl)ccc12`, the GI50 in assay [1] was 40.6 µM (inactive); in [2] it was 28.1 µM (inactive); in assay [16], 51.4 µM; in assay [3] it was 73.5 µM (inactive); in assay [4], 21.3 µM (inactive); in assay [5] it was 61.5 µM (inactive). The GI50 in [6] was 36.6 µM (inactive); in [7], 28.3 µM (inactive); in assay [8], 84.5 µM (inactive); in [9], 45.8 µM (inactive); in [10], 25.9 µM (inactive); in [11], > 100 µM (inactive). Further, the GI50 was 39.4 µM (inactive) in [12], 26.9 µM (inactive) in assay [13], 31.2 µM (inactive) in assay [14] and 45.2 µM (inactive) in [15].
Regarding `CC1=C(C(=O)CC(=O)C(=O)Nc2ccccc2C)Sc2ccccc2N1`, the GI50 in [1] was > 100 µM (inactive); in assay [2], > 40.6 µM (inactive); in [16], over 100 µM; in [3] it was > 100 µM (inactive); in [4], > 100 µM (inactive); in assay [5] it was > 100 µM (inactive). Also, the GI50 in assay [6] was > 40.4 µM (inactive); in assay [7], > 100 µM (inactive); in assay [8], > 57.4 µM (inactive); in assay [9], > 100 µM (inactive); in [10], > 93.3 µM (inactive); in [11], > 100 µM (inactive). In addition, the GI50 in [12] is > 100 µM (inactive); in [13] it was > 100 µM (inactive); in [14], > 39.3 µM (inactive); in [15], > 100 µM (inactive).
As for `FC(F)(F)c1ccc(C2SCc3nc4ccccc4n32)cc1` (stereo not given), the GI50 in [1] was 29.7 µM (inactive); in [2], 27.9 µM (inactive); in [4] it was 12.1 µM (inactive); in assay [5] it was > 100 µM (inactive); in assay [7], > 10 µM (inactive); in assay [8] it was 97.5 µM (inactive). In addition, the GI50 in assay [9] is > 100 µM (inactive); in assay [10], > 100 µM (inactive); in [11] it was > 100 µM (inactive); in assay [12] it was 11.5 µM (inactive); in [13], 16.2 µM (inactive); in [14], > 100 µM (inactive). For the same molecule, the GI50 in assay [15] is > 100 µM (inactive).
Regarding `CN(C)C(=S)/N=c1\ssc(=S)n1Cc1ccncc1`, the GI50 was 22.8 µM (inactive) in assay [1]; 18.3 µM (inactive) in assay [2]; 17.5 µM in assay [16]; 24.9 µM (inactive) in assay [3]; 14 µM (inactive) in [4]; > 100 µM (inactive) in assay [5]. Moreover, the GI50 was 13.8 µM (inactive) in [6]; 13.3 µM (inactive) in assay [7]; 25.5 µM (inactive) in assay [8]; 29.8 µM (inactive) in assay [9]; 21.2 µM (inactive) in assay [10]; 35.1 µM (inactive) in assay [11]. The GI50 in assay [12] is 4.78 µM (inactive); in assay [13], 6.28 µM (inactive); in [14], 16.5 µM (inactive); in [15], 15.5 µM (inactive).
As to `O=C[C@]12CC=C3OC4OC5(CCCCC5)OC4[C@H]3[C@H]1C(=O)C=CC2=O` (stereo not given in full), the GI50 in assay [1] was 16.1 µM (inactive); in [2], 19.9 µM (inactive); in assay [16] it was 18.7 µM; in assay [3] it was > 100 µM (inactive); in assay [4], 2.85 µM (inactive); in assay [5], > 100 µM (inactive). For the same molecule, the GI50 is 23.9 µM (inactive) in [6]; 12.6 µM (inactive) in assay [8]; 34.6 µM (inactive) in assay [9]; 3.55 µM (inactive) in assay [10]; 26.7 µM (inactive) in assay [11]; 17.7 µM (inactive) in assay [12]. Further, the GI50 is 2.52 µM (inactive) in assay [13], 19.3 µM (inactive) in [14] and 12.1 µM (inactive) in [15].
`O=C(c1ccccc1)C1(Br)S(=O)(=O)OCCOS1(=O)=O`: the GI50 in assay [1] was > 100 µM (inactive); in assay [2], > 100 µM (inactive); in assay [16], over 100 µM; in assay [3], > 100 µM (inactive); in assay [4], > 100 µM (inactive); in [5], > 100 µM (inactive). The GI50 in assay [6], in [7], in [8], in assay [9], in assay [10] and in [11] was > 100 µM (inactive) throughout. Also, the GI50 in assay [12], in [13], in [14] and in assay [15] was > 100 µM (inactive) each time.
On to `Clc1ccc(-c2nnc(-c3c(Cl)c(Cl)c(Cl)c(Cl)c3-c3nc4ccccc4[nH]3)o2)cc1`, for which the GI50 in [1] was 54.3 µM (inactive); in assay [2], 31.6 µM (inactive); in assay [16], 55.3 µM; in assay [3] it was > 100 µM (inactive); in assay [17], 35.1 µM (inactive); in [4], 27.2 µM (inactive). Besides, the GI50 is 54.5 µM (inactive) in [5]; 44 µM (inactive) in assay [6]; 61.7 µM (inactive) in assay [7]; 97.5 µM (inactive) in [19]; 40.7 µM (inactive) in assay [8]; 48.5 µM (inactive) in [9]. For the same molecule, the GI50 is > 100 µM (inactive) in [10]; > 100 µM (inactive) in assay [11]; 40.4 µM (inactive) in [12]; 34.3 µM (inactive) in assay [13]; > 100 µM (inactive) in [14]; 21 µM (inactive) in [20]. Further, the GI50 in assay [15] is 42.7 µM (inactive).
Turning to `O=C(NC1C2CC3CC(C2)CC1C3)/C(Cl)=C1/Sc2ccccc2NC1=O` (stereo not given), the GI50 is > 100 µM (inactive) in assay [1]; > 83.6 µM (inactive) in assay [2]; over 78.9 µM in [16]; > 100 µM (inactive) in assay [3]; 16.7 µM (inactive) in assay [4]; > 100 µM (inactive) in assay [5]. The GI50 in assay [6] was > 89.9 µM (inactive); in assay [7] it was > 100 µM (inactive); in assay [8], > 100 µM (inactive); in assay [9], > 100 µM (inactive); in assay [10], > 100 µM (inactive); in [11] it was > 100 µM (inactive). For the same molecule, the GI50 was > 100 µM (inactive) in assay [12], 44.5 µM (inactive) in assay [13], > 100 µM (inactive) in assay [14] and 58.9 µM (inactive) in assay [15].
With `COc1ccc(CC(C)N)cc1` (stereo not given) [PARA-METHOXYAMPHETAMINE], the GI50 in assay [1] is > 100 µM (inactive); in [2], > 100 µM (inactive); in assay [16] it was over 100 µM; in assay [3] it was > 100 µM (inactive); in assay [4] it was > 100 µM (inactive); in assay [5] it was > 100 µM (inactive). Also, the GI50 in assay [6], in assay [7], in [8], in assay [9], in assay [10] and in [11] was > 100 µM (inactive) throughout. Moreover, the GI50 in assay [12], in assay [13], in assay [14] and in [15] was > 100 µM (inactive) in each case.
